What all share (format): cell-based
For experiment [1], the target named is T1, human muscarinic M3 receptor (Homo sapiens, UniProt P20309).
T1 construct: expressed in transfected cells
The experiment is described as follows: Alphascreen Surefire phospho-ERK1/2 functional assay, M3. The following applies: for EC50: CHO cells stably expressing human M3, read-out: pEC50 M3 (converted); for Emax: CHO, read-out: % Emax cf. ACh, M3, CHO cells stably expressing human M3, relative to ACh; for % Emax cf. ACh, M3: CHO cells stably expressing human M3, relative to ACh. Here is the method: (§1) ERK1/2 phosphorylation is a downstream consequence of both Gq/11 and Gi/o protein coupled receptor activation, making it highly suitable for the assessment of M1, M3 (Gq/11 coupled) and M2, M4 receptors (Gi/o coupled), rather than using different assay formats for different receptor subtypes. CHO cells stably expressing the human muscarinic M1, M2, M3 or M4 receptor were plated (25K/well) onto 96-well tissue culture plates in MEM-alpha+10% dialysed FBS. Once adhered, cells were serum-starved overnight. Agonist stimulation was performed by the addition of 5 μL agonist to the cells for 5 min (37° C.). Media was removed and 50 μL of lysis buffer added. […] Plates were incubated for 2 h with gentle agitation in the dark and then read on a PHERAstar plate reader.
(§2) pEC50 and Emax figures were calculated from the resulting data for each receptor subtype.

The target of experiment [2] is T2, human muscarinic M4 receptor (Homo sapiens, UniProt P08173).
T2 construct: expressed in transfected cells
T2 sequence (P08173 1-479): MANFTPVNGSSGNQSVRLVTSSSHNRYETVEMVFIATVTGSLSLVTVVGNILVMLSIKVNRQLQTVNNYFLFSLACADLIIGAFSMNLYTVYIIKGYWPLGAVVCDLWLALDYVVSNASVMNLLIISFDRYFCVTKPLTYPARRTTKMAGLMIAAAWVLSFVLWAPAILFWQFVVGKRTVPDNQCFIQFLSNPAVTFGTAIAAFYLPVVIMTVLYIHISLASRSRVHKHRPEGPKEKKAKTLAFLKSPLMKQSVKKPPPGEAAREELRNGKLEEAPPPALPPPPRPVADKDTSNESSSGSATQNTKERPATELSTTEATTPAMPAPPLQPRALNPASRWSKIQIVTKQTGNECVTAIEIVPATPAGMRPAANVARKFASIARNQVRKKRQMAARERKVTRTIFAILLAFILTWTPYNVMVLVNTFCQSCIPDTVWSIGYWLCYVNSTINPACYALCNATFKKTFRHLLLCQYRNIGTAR
The experiment in a line: Alphascreen Surefire phospho-ERK1/2 functional assay, M4. The settings on record: for EC50: CHO cells stably expressing human M4, read-out: pEC50 M4 (converted); for Emax: CHO, read-out: % Emax cf. ACh, M4, CHO cells stably expressing human M4, relative to ACh; for % Emax cf. ACh, M4: CHO cells stably expressing human M4, relative to ACh. Here is the method:
as §1, §2

Experiment [3] concerns the target T3, human muscarinic M1 receptor (Homo sapiens, UniProt P11229).
T3 sequence (P11229 1-460): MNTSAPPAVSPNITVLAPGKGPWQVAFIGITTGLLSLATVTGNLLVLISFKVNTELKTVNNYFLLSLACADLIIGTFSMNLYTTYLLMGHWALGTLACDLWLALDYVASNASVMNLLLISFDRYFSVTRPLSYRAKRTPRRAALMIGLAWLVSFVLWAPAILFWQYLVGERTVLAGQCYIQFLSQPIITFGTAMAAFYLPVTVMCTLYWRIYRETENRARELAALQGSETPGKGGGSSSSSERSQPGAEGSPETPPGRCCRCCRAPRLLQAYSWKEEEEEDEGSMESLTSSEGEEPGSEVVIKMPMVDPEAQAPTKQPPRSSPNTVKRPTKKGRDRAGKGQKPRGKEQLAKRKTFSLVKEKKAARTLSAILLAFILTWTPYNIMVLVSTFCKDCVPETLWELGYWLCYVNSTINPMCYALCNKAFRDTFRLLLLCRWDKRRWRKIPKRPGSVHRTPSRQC
The experiment in a line: Alphascreen Surefire phospho-ERK1/2 functional assay, M1. The following applies: for EC50: CHO cells stably expressing human M1, read-out: pEC50 M1 (converted); for Emax: CHO, read-out: % Emax cf. ACh, M1, CHO cells stably expressing human M1, relative to ACh; for % Emax cf. ACh, M1: CHO cells stably expressing human M1, relative to ACh. Here is the method: as §1, §2
(In general: In Alpha technology, singlet oxygen from a donor bead excites a nearby acceptor bead.)

In experiment [4] the target is T4, human muscarinic M2 receptor (Homo sapiens, UniProt P08172).
T4 sequence (P08172 1-466): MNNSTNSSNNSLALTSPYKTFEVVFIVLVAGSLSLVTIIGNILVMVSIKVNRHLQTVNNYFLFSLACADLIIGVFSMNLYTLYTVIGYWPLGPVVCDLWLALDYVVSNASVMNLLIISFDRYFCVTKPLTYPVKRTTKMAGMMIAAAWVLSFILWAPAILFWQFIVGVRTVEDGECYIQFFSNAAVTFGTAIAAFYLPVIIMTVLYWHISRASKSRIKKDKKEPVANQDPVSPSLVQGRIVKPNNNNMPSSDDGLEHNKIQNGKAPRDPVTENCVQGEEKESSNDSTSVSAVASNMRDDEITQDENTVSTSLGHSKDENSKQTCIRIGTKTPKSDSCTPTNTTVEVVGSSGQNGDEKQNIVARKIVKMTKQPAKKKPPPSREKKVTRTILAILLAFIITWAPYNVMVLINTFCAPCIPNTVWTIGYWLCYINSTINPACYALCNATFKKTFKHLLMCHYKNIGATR
The experiment is described as follows: Alphascreen Surefire phospho-ERK1/2 functional assay, M2. The settings on record: for EC50: CHO cells stably expressing human M2, read-out: pEC50 M2 (converted); for Emax: CHO, read-out: % Emax cf. ACh, M2, CHO cells stably expressing human M2, relative to ACh; for % Emax cf. ACh, M2: CHO cells stably expressing human M2, relative to ACh. Here is the method:
as §1, §2

T1 sequence (P20309 whole entry): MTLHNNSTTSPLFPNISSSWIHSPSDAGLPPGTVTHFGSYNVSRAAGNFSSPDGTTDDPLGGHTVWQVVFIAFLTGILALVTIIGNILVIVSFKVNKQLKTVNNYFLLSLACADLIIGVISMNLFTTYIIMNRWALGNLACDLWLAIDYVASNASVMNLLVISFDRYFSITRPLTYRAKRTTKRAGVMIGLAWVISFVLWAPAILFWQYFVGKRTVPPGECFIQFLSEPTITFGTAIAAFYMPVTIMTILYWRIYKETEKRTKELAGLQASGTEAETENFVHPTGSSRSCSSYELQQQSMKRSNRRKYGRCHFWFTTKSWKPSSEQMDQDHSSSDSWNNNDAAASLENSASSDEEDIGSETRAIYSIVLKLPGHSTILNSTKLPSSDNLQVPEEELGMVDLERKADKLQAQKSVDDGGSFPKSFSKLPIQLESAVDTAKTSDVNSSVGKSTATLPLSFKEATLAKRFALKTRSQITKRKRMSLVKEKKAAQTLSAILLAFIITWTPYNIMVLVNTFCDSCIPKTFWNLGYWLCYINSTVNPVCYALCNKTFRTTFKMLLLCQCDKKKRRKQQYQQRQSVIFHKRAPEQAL

For the compound `CC#CCOC(=O)N1C2CCC1CC(N1CCC3(CC1)CNC(=O)C3)C2` (single isomer, unassigned) [Example 2-5 Isomer 1], the EC50 was over 20000 nM in experiment [1], 25.1 nM in experiment [2], 25.1 nM in experiment [3] and 158 nM in experiment [4]. The Emax – broadly, the size of the effect at its maximum, as opposed to the concentration needed – is 7% in experiment [1], 87% in experiment [2], 98% in experiment [3] and 39% in experiment [4].
Consider `CCOC(=O)N1C2CCC1CC(N1CCC3(CC1)CC(=O)NC3CC)C2` (single isomer, unassigned) [Example 2-8 Isomer 1, ethyl 3-(1-ethyl-3-oxo-2,8-diazaspiro[4.5]decan-8-yl)-8-azabicyclo[3.2.1]octane-8-carboxylate], for which the EC50 is 12600 nM in experiment [1], over 20000 nM in experiment [2], 20 nM in experiment [3] and over 20000 nM in experiment [4]. Also, the “% Emax cf. ACh, M3” value in experiment [1] (listed as 2-8 Isomer 1) came out at 50%. In addition, the “% Emax cf. ACh, M4” value in experiment [2] (listed as 2-8 Isomer 1) was 23%. Further, in experiment [3] (listed as 2-8 Isomer 1), the “% Emax cf. ACh, M1” value is reported as 52%. The Emax in experiment [4] was 4%.
Consider `CCOC(=O)N1C2CCC1CC(N1CCC3(CC1)CC(=O)NC3CC)C2` (single isomer, unassigned) [Example 2-8 Isomer 2, ethyl 3-(1-ethyl-3-oxo-2,8-diazaspiro[4.5]decan-8-yl)-8-azabicyclo [3.2.1]octane-8-carboxylate], for which the EC50 in experiment [1] was over 20000 nM; in experiment [2], 31.6 nM; in experiment [3], 100 nM. Further, the “% Emax cf. ACh, M3” value in experiment [1] (listed as 2-8 Isomer 2) is 12%. In addition, in experiment [2] (listed as 2-8 Isomer 2), the “% Emax cf. ACh, M4” value worked out at 59%. For the same compound, the “% Emax cf. ACh, M1” value in experiment [3] (listed as 2-8 Isomer 2) is 89%. In experiment [4], the “% Emax cf. ACh, M2” value was 6%.
Consider `CCCC1NC(=O)CC12CCN(C1CC3CCC(C1)N3C(=O)OCC)CC2` (single isomer, unassigned) [Example 2-9 Isomer 1], for which the EC50 was over 20000 nM in experiment [1], 2.51 nM in experiment [2], 5.01 nM in experiment [3] and over 20000 nM in experiment [4]. The Emax in experiment [1] amounted to 22%; in experiment [2], 78%; in experiment [3], 91%; in experiment [4] it was 2%.
With `CCOC(=O)N1C2CCC1CC(N1CCC3(CC1)CC(=O)NC3Cc1ccccc1)C2` (single isomer, unassigned) [Example 2-10 Isomer 1], the EC50 in experiment [1] is over 20000 nM; in experiment [2], 79.4 nM; in experiment [3] it was 20 nM; in experiment [4], over 20000 nM. Besides, the “% Emax cf. ACh, M3” value in experiment [1] (listed as 2-10 Isomer 1) is 5%. The “% Emax cf. ACh, M4” value in experiment [2] (listed as 2-10 Isomer 1) is listed as 21%. In addition, the Emax in experiment [3] stood at 74%. Besides, the “% Emax cf. ACh, M2” value in experiment [4] (listed as 2-10 Isomer 1) was found to be 1%.
With `CCOC(=O)N1C2CCC1CC(N1CCC3(CC1)CC(=O)NC3Cc1ccccc1)C2` (single isomer, unassigned) [Example 2-10 Isomer 2], the “% Emax cf. ACh, M3” value in experiment [1] (listed as 2-10 Isomer 2) was found to be 13%. Besides, the EC50 is 126 nM in experiment [2] and 63.1 nM in experiment [3]. Further, the “% Emax cf. ACh, M4” value in experiment [2] (listed as 2-10 Isomer 2) is given as 50%. Also, the “% Emax cf. ACh, M1” value in experiment [3] came to 77%. Besides, in experiment [4] (listed as 2-10 Isomer 2), the “% Emax cf. ACh, M2” value is 11%.
For the compound `CCOC(=O)N1C2CCC1C(F)C(N1CCC3(CC1)CNC(=O)C3)C2` (single isomer, unassigned) [Example 2-11 Isomer 2], in experiment [1], the EC50 is over 20000 nM and the Emax worked out at 22%. Further, in experiment [2], the EC50 is 200 nM and the “% Emax cf. ACh, M4” value is on record as 55%. For the same compound, in experiment [3], the EC50 was 251 nM and the “% Emax cf. ACh, M1” value came out at 101%. In addition, in experiment [4], the EC50 is over 20000 nM and the Emax was 18%.
Turning to `CCOC(=O)N1C2CCC1CC(N1CCC3(CC1)CC(=O)N(CC)C3)C2` (single isomer, unassigned) [Example 2-13 Isomer 2], the EC50 was over 20000 nM in experiment [1], 100 nM in experiment [2], 158 nM in experiment [3] and over 20000 nM in experiment [4]. Moreover, the Emax came to 57% in experiment [1], 49% in experiment [2], 76% in experiment [3] and 11% in experiment [4].
As to `CCOC(=O)N1C2CCC1CC(N1CCC3(CC1)CNC(=O)O3)C2` (single isomer, unassigned) [Example 2-14 Isomer 2], in experiment [1], the EC50 was over 20000 nM and the Emax came to 0%. In experiment [2], the EC50 was 79.4 nM and the “% Emax cf. ACh, M4” value is on record as 60%. For the same compound, in experiment [3], the EC50 was 39.8 nM and the “% Emax cf. ACh, M1” value came out at 92%. Besides, in experiment [4], the EC50 is over 20000 nM and the Emax came to 0%.
In the case of `CCOC(=O)N1C2CCC1CC(N1CCC3(CC1)OC(=O)NC3CC)C2` (single isomer, unassigned) [Example 2-16 Isomer 1], the EC50 in experiment [1] is over 20000 nM; in experiment [2], 79.4 nM; in experiment [3], 50.1 nM; in experiment [4] it was over 20000 nM. Also, the Emax came to 9% in experiment [1] and 3% in experiment [4]. Further, the “% Emax cf. ACh, M4” value in experiment [2] (listed as 2-16 Isomer 1) came out at 19%. Moreover, the “% Emax cf. ACh, M1” value in experiment [3] (listed as 2-16 Isomer 1) is listed as 36%.
`CCOC(=O)N1C2CCC1CC(N1CCC3(CC1)OC(=O)NC3C(C)C)C2` (single isomer, unassigned) [Example 2-17 Isomer 1]: the EC50 was over 20000 nM in experiment [1], 20 nM in experiment [2], 31.6 nM in experiment [3] and over 20000 nM in experiment [4]. Moreover, in experiment [1] (listed as 2-17 Isomer 1), the “% Emax cf. ACh, M3” value was 51%. Besides, in experiment [2] (listed as 2-17 Isomer 1), the “% Emax cf. ACh, M4” value is 25%. Moreover, the “% Emax cf. ACh, M1” value in experiment [3] (listed as 2-17 Isomer 1) was 58%. The Emax in experiment [4] was found to be 2%.
